Results from PubChem BioAssay AID179 (DTP/NCI, 2004).
Activity calls are given as the source filed them.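 How the source made its calls: active means compounds giving half or more protection of infected cells from virus-caused growth loss, again on retest; inactive means the rest.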 Where a SMILES comes first, the peptide text is derived from it. [ ]: non-standard residue; d: D form. The star is where a group is joined. pGlu = O=C1CC[CH](C(=O)O)N1; Boc = CC(C)(C)OC(=O)*; tBu = CC(C)(C)*

Test system: CEM cells HIV-1 protection, formazan growth assay
Assay: NCI AIDS Antiviral Assay
Details: for IC50: measured here: growth of uninfected CEM cells
Method in brief: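 Protection of CEM cells against HIV-1 measured as cell growth via soluble formazan read-out, with five concentrations tested on both infected and uninfected cells; failure to protect may reflect toxicity.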

Row | SMILES | EC50 | IC50 | outcome
1 | Cn1c2ccccc2c2c3c(ccc21)C(=O)c1ccccc1C3=O | > 17 µM | > 17 µM | 
2 | CCOC(=O)CC[C@H](NC(=O)c1[nH]cnc1/N=N/N(C)C)C(=O)OCC | > 676 µM | 339 µM | 
3 | O=C1CCCc2cc3c(cc21)CC1(C3)Cc2cc3c(cc2C1)C(=O)CCC3 | > 200 µM | 0.977 µM | 
4 | CCCCOP(=O)(OCCCC)/C(C#N)=C/c1ccc(C)o1 | > 200 µM | 102 µM | 
5 | CS(=O)(=O)C(=Cc1ccccc1Cl)S(C)(=O)=O |  |  | inactive
6 | CCn1c(O)c(C=Nc2ccccc2)s/c1=N/Nc1nc(-c2ccc(O)c(O)c2)cs1 | > 200 µM | 14.1 µM | 
7 | O=c1[nH]c2cnn(-c3ccccc3)c2c(=O)n1OS(=O)(=O)c1ccccc1 | > 200 µM | > 200 µM | 
8 | C=CCNC1=C2C[C@@H](C)C[C@@H](OC)[C@@H](OC(=O)CCCN)[C@H](C)/C=C(\C)[C@@H](OC(N)=O)[C@H](OC)/C=C\C=C(/C)C(=O)NC(=CC1=O)C2=O | > 200 µM | 5.5 µM | 
9 | CCC(=O)NC(Nc1cccc(F)c1)(C(F)(F)F)C(F)(F)F | > 200 µM | > 200 µM | 
10 | NC(=S)/N=C(/c1nc2ccc(Cl)cc2[nH]c1=O)C(O)c1ccccc1Cl (stereo not drawn) | > 617 µM | 589 µM | 
11 | CC(OC(C)(C)C)C(NC(=O)C(N)CCCCNC(=O)OC(C)(C)C)C(=O)NC(Cc1ccccc1)C(=O)O (stereo not drawn) (H-Lys(Boc)-Thr(tBu)-Phe-OH; configuration not given here) | > 200 µM | > 200 µM | 
12 | OCCNc1nnc(NCCO)c2[nH]cnc12 |  |  | inactive
13 | CC[C@H](C)N(CCN)C(=O)c1cc2ccccc2c(-c2ccccc2Cl)n1 |  |  | inactive
14 | O=C(Cn1c2c(c3ccccc31)CCCC2)NC1CCCCC1 | > 200 µM | > 200 µM | 
15 | Cn1c(=O)c2c(nc(NCC[N+](C)(C)C)n2C)n(C)c1=O |  |  | inactive
16 | COC(=O)c1c(C)c2c(c(C)c1O)OC(=O)c1c(C)cc(O)c(C=O)c1O2 | 186 µM | > 200 µM | 
17 | c1ccc2c(-c3csc(-c4c[nH]c5ccccc45)n3)c[nH]c2c1 | > 200 µM | 56.2 µM | 
18 | ClC(Cl)=C(Cl)C1(Cl)CC1COCc1ccccc1 (stereo not drawn) | > 30.9 µM | 24.5 µM | 
19 | O=C1OC2C(O)C3CC1C2O3 (stereo not drawn) | > 1580 µM | > 1580 µM | 
20 | O=C(O)[C@@H]1CSC(c2ccc(Cl)cc2)N1 (stereo partly drawn) | > 200 µM | > 200 µM | 
21 | N.N.N.N.O=C([O-])CCl.O=C([O-])CCl.[Co+3].[O-][Cl+3]([O-])([O-])[O-] |  |  | inactive

Row | SMILES | EC50 | IC50 | outcome
22 | C1CN2CCN3CCN4CCN1[P+]243 |  |  | inactive
23 | CCOC(=O)/C(=C/c1ccc(OC)cc1)C(=O)c1ccccc1 | > 17 µM | > 17 µM | 
24 | CC(NC(=O)C(Cc1cnc[nH]1)NC(=O)C1CCC(=O)N1)C(N)=O (stereo not drawn) ([pGlu]-His-Ala-NH2; configuration not given here) | > 200 µM | > 200 µM | 
25 | Cc1cc2c(O)c(c1)CN(CC(=O)O)Cc1cc(C)cc(c1O)CN(CC(=O)O)Cc1cc(C)cc(c1O)CN(CC(=O)O)C2 | > 200 µM | > 200 µM | 
26 | COc1cnnc2ccccc12 | > 676 µM | 603 µM | 
27 | Cc1ccc(SC(C)/C=C/NNC2=NC(c3ccccc3)C(c3ccccc3)=NN2)cc1 (stereo not drawn) | > 22.4 µM | > 22.4 µM | 
28 | CCOC(=O)C[P+](c1ccc(OC)cc1)(c1ccc(OC)cc1)c1ccc(OC)cc1 | > 200 µM | 33.1 µM | 
29 | COC1(CC[C@@H](C)COC2OC(CO)C(O)C(O)C2O)O[C@H]2C[C@H]3[C@@H]4CC=C5C[C@@H](OC6OC(CO)C(O)C(OC7OC(CO)C(O)C(O)C7O)C6OC6OC(C)C(O)C(O)C6O)CC[C@]5(C)[C@H]4CC[C@]3(C)[C@H]2[C@@H]1C (stereo partly drawn) | > 200 µM | 3.31 µM | 
30 | N#CCCC(C=O)(CCC#N)CCC#N | > 200 µM | > 200 µM | 
31 | CCC1=C(OC)c2nccc(C)c2C(=O)C1=O |  |  | inactive
32 | CCSC(CCCC1OCC2OC(n3cc(C)c(=O)[nH]c3=O)CC2N1O)SCC (stereo not drawn) | > 200 µM | 135 µM | 
33 | CC(=O)Nc1cc(S(=O)(=O)O)cc2cc(S(=O)(=O)O)c(N=Nc3ccc(C(=O)Nc4ccc5cc(S(=O)(=O)O)ccc5c4)cc3)c(O)c12 |  |  | inactive
34 | O=C1C2C(C(=O)N1Cc1ccccc1)N(Cc1ccccc1)C(=O)N2Cc1ccccc1 (stereo not drawn) | > 12.3 µM | > 12.3 µM | 
35 | C/C=C1/CC(C(=O)OC)N(C(=O)OCc2ccccc2)C1=S (stereo not drawn) | > 200 µM | > 200 µM | 
36 | Cn1cnc([N+](=O)[O-])c1Sc1nc2cccnc2s1 | > 170 µM | 4.57 µM | 
37 | O=C(O)c1ccccc1C(=O)c1ccccc1 | > 200 µM | > 200 µM | 
38 | COc1ccc(/C=C2\S/C(=N/Nc3nc(-c4ccccc4)cs3)NC2=O)cc1OC | > 200 µM | 31.6 µM | 
39 | Cc1cccc(NC(=S)N/N=C(/c2ccccc2)c2ccccn2)c1 | > 0.2 µM | 0.0933 µM | 
40 | CCc1cc2c(oc3cc(C)ccc32)c(=O)n1C | > 200 µM | 97.7 µM | 
41 | Cc1c(C(Cc2ccccc2N(C)C(=O)/C=C\C(=O)O)c2c[nH]c3ccccc23)c2ccccc2n1C (stereo not drawn) | > 363 µM | 22.4 µM | 
42 | COc1ccc2c3ccc4c(c3n(C)c2c1)C(=O)c1ccccc1C4=O | > 1.51 µM | > 1.51 µM | 

Row | SMILES | EC50 | IC50 | outcome
43 | CC(C)Cn1cnc2c(NCC(C)O)nc3ccccc3c21 (stereo not drawn) | > 200 µM | 87.1 µM | 
44 | CC(=O)Nc1ccc(/C=C/C(=O)c2sc(C(N)=S)nc2C)cc1 | > 75.9 µM | > 75.9 µM | 
45 | COC(=O)/C(=N\Nc1nnc(C)n1N)C(C#N)c1ccccc1 (stereo not drawn) | > 575 µM | 93.3 µM | 
46 | c1cc[c]([Sn]([S]c2cccc3cccnc23)([S]c2cccc3cccnc23)[c]2ccccc2)cc1 |  |  | inactive
47 | CC(C)OC1OC(CO)C(O)CC1n1cc(F)c(=O)[nH]c1=O (stereo not drawn) | > 200 µM | 24.5 µM | 
48 | Clc1ccc(-c2nn3c(CCCCCCCCc4nnc5sc(-c6ccc(Cl)cc6)nn45)nnc3s2)cc1 | > 200 µM | 19.1 µM | 
49 | N#C/C(=C\c1cc(Cl)cc(Cl)c1O)c1nc2ccccc2[nH]1 | > 200 µM | 30.9 µM | 
50 | Oc1c2cccc1Cc1cccc3c1OCCOCCOCCOCCOc1c(cccc1Cc1cccc(c1O)C3)C2 | > 200 µM | 50.1 µM | 
51 | CCCc1c(C(=O)OCC)[nH]c(C(=O)CCC(=O)c2[nH]c(C(=O)OCC)c(CCC)c2C(=O)OCC)c1C(=O)OCC | > 17 µM | > 17 µM | 
52 | Oc1ccccc1-c1nnc2n1N=C(c1ccc(-c3ccccc3)cc1)CS2 | > 200 µM | 15.5 µM | 
53 | CCOC(=O)N1CC2(C(=O)OC)C=CC1C(C(=O)OC)C2 (stereo not drawn) | > 200 µM | > 200 µM | 
54 | Cc1cn(C(C)OCCN(OC(=O)Oc2ccccc2)C(=O)Oc2ccccc2)c(=O)[nH]c1=O (stereo not drawn) | > 200 µM | > 200 µM | 
55 | O=C1OCc2cnccc21 | > 1860 µM | > 1860 µM | 
56 | O=C1OC(CN2CCOCC2)CN1/N=C/c1ccc([N+](=O)[O-])o1 (stereo not drawn) | > 200 µM | 41.7 µM | 
57 | COc1cc(OC)c(C(=O)c2cccs2)cc1N |  |  | inactive
58 | Cc1occc1C(=S)Nc1ccc(Cl)c(C(=O)OC2CCCC2)c1 | 0.00295 µM | 16.6 µM | 
59 | CN1C2C=CC1c1c(C3=NC(C)(C)CO3)cccc12 (stereo not drawn) | > 200 µM | > 200 µM | 
60 | CC12CCC(C(=O)O1)C(C)(C)O2 (stereo not drawn) | > 200 µM | > 200 µM | 
61 | O=P(O)(O)OC1C(OP(=O)(O)O)C(OP(=O)(O)O)C(OP(=O)(O)O)C(OP(=O)(O)O)C1OP(=O)(O)O (stereo not drawn) | > 200 µM | > 200 µM | 
62 | Nc1ncnc2c1nnn2C1CCC(CP(=O)(O)O)C1 (stereo not drawn) | > 200 µM | > 200 µM | 
63 | Cc1cc(O)c2c(c1)C(=O)c1cccc(O)c1C2=O | > 28.2 µM | > 28.2 µM | 

Row | SMILES | EC50 | IC50 | outcome
64 | Cc1c(/C=N/NC(=S)Nc2ccccc2Cl)c(=O)n(-c2ccccc2)n1C | > 200 µM | 26.9 µM | 
65 | O=C(/C=C/c1ccc(Cl)c(Cl)c1)c1cccc2ccccc12 | > 3.16 µM | > 3.16 µM | 
66 | CC(SCCCCCCCCCCCCSC(C)C(=O)O)C(=O)O (stereo not drawn) | > 79.4 µM | > 79.4 µM | 
67 | C/C(=N\NS(=O)(=O)c1ccc(C)cc1)C(CN1CCOCC1)C(c1ccccc1)c1c(O)c2ccccc2oc1=O (stereo not drawn) | > 42.7 µM | 19.1 µM | 
68 | CCC(=O)NC(Nc1cc(C)on1)(C(F)(F)F)C(F)(F)F | > 200 µM | > 200 µM | 
69 | COc1cc(CNC(=O)CCCCCCCCCCSC#N)ccc1O | > 200 µM | 27.5 µM | 
70 | COc1ccc2[nH]c3c4c(c5cc(C(C)(C)C)ccc5c3c2c1)C(=O)N(c1ccccc1)C4=O |  |  | inactive
71 | O=C1NCCCc2nonc21 | > 200 µM | > 200 µM | 
72 | N#CC(C(=O)CCC(=O)C(C#N)c1ccccc1)c1ccccc1 (stereo not drawn) | > 398 µM | > 398 µM | 
73 | O=C1C(=c2ccc(=C3C(=O)c4ccc([N+](=O)[O-])cc4[N+]3=O)cc2)N([O-])c2cc([N+](=O)[O-])ccc21 | > 11.5 µM | > 11.5 µM | 
74 | N/N=C1\CCCc2c1no[n+]2[O-] | > 200 µM | > 200 µM | 
75 | O=C(O)CCSc1nnc(COc2ccc(Cl)cc2)n1-c1ccccc1 | > 200 µM | 67.6 µM | 
76 | Cc1ccc(NC(=O)OCC(COc2ccc(Cl)cc2Cl)OC(=O)Nc2ccc(C)cc2)cc1 (stereo not drawn) | > 2.88 µM | > 2.88 µM | 
77 | CCCCCCCCCCCCCCCC(=O)OCC1OC(n2cc(F)c(=O)[nH]c2=O)C(NC(=O)N(CCCl)N=O)C(O)C1O (stereo not drawn) | > 20.4 µM | 3.47 µM | 
78 | COc1nc(NC2OC(COC(C)=O)C(OC(C)=O)C(OC(C)=O)C2OC(C)=O)c(-c2csc(N)n2)c(=O)n1C (stereo not drawn) | > 6.17 µM | > 6.17 µM | 
79 | O=S1(=O)C(c2cccc(F)c2)=C(O)c2cc3ccccc3nc21 |  |  | inactive
80 | O=C(Cc1nc2ccccc2s1)C(=O)Nc1cccc(C(F)(F)F)c1 |  |  | inactive
81 | O=c1c(-c2ccc(O)cc2)coc2c(C3OC(CO)C(O)C(O)C3O)c(O)ccc12 (stereo not drawn) | > 200 µM | > 200 µM | 
82 | CCCCCCCCCCCCCCCC(=O)Nc1ccn(C2CCC(COP(=O)(O)OC3CC(n4cc(C)c(=O)[nH]c4=O)OC3CO)O2)c(=O)n1 (stereo not drawn) | 0.0933 µM | 45.7 µM | 
83 | CC1(CO)CCCC2(C)C1CCC1CC3C=CC12C1C(=O)OC(=O)C31 (stereo not drawn) | > 200 µM | 83.2 µM | 
